Results: PubChem BioAssay (NCI)
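1) Cells in 96-well plates. 2) Compound, 48 h, 5 concentrations. 3) Linear interpolation between surrounding doses. 4) Unreached endpoint = highest concentration. TGI denotes the concentration required for complete inhibition of growth.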

Assays:
Assay in all cases: NCI tumour cell line growth inhibition, 48 h
HCC-2998 colon = system: HCC-2998 colon
OVCAR-5 ovarian = system: OVCAR-5 ovarian
K-562 leukemia = system: K-562 leukemia
786-0 renal = system: 786-0 renal
SNB-78 CNS = system: SNB-78 CNS
SK-MEL-2 melanoma = system: SK-MEL-2 melanoma
ACHN renal = system: ACHN renal
OVCAR-4 ovarian = system: OVCAR-4 ovarian
SNB-75 CNS = system: SNB-75 CNS
KM20L2 colon = system: KM20L2 colon
M14 melanoma = system: M14 melanoma
SK-MEL-28 melanoma = system: SK-MEL-28 melanoma
MALME-3M melanoma = system: MALME-3M melanoma
UO-31 renal = system: UO-31 renal
HCT-116 colon = system: HCT-116 colon
NCI-H226 lung = system: NCI-H226 lung
SF-268 CNS = system: SF-268 CNS
SK-OV-3 ovarian = system: SK-OV-3 ovarian
LOX IMVI melanoma = system: LOX IMVI melanoma
U251 CNS = system: U251 CNS
TK-10 renal = system: TK-10 renal
CAKI-1 renal = system: CAKI-1 renal
SR leukemia = system: SR leukemia
HL-60(TB) leukemia = system: HL-60(TB) leukemia
SNB-19 CNS = system: SNB-19 CNS
HCT-15 colon = system: HCT-15 colon
SW-620 colon = system: SW-620 colon
RXF 393 renal = system: RXF 393 renal
KM12 colon = system: KM12 colon
HOP-92 NSCLC = system: HOP-92 NSCLC
UACC-62 melanoma = system: UACC-62 melanoma
SN12C renal = system: SN12C renal
NCI-H23 lung = system: NCI-H23 lung
A549 NSCLC = system: A549 NSCLC
DMS 114 small cell lung = system: DMS 114 small cell lung
OVCAR-3 ovarian = system: OVCAR-3 ovarian
MOLT-4 leukemia = system: MOLT-4 leukemia
IGROV1 ovarian = system: IGROV1 ovarian
DLD-1 colon = system: DLD-1 colon
NCI-H522 lung = system: NCI-H522 lung
M19-MEL melanoma = system: M19-MEL melanoma
HT29 colon = system: HT29 colon
SF-539 CNS = system: SF-539 CNS
LXFL 529 NSCLC = system: LXFL 529 NSCLC
HOP-18 NSCLC = system: HOP-18 NSCLC
NCI-H460 lung = system: NCI-H460 lung
RPMI-8226 leukemia = system: RPMI-8226 leukemia
COLO 205 colon = system: COLO 205 colon
CCRF-CEM leukemia = system: CCRF-CEM leukemia
OVCAR-8 ovarian = system: OVCAR-8 ovarian
SK-MEL-5 melanoma = system: SK-MEL-5 melanoma
HOP-62 NSCLC = system: HOP-62 NSCLC
UACC-257 melanoma = system: UACC-257 melanoma
SF-295 CNS = system: SF-295 CNS
DMS 273 small cell lung = system: DMS 273 small cell lung
EKVX NSCLC = system: EKVX NSCLC
XF 498 CNS = system: XF 498 CNS
A498 renal = system: A498 renal

N#CN1CCC2CC(=O)CCC2C1 (stereo not given)
TGI (HCC-2998 colon): > 100 µM
TGI (OVCAR-5 ovarian): > 100 µM
TGI (K-562 leukemia): > 100 µM
TGI (786-0 renal): > 100 µM
TGI (SNB-78 CNS): > 100 µM
TGI (SK-MEL-2 melanoma): > 100 µM
TGI (ACHN renal): > 100 µM
TGI (OVCAR-4 ovarian): > 100 µM
TGI (SNB-75 CNS): > 100 µM
TGI (KM20L2 colon): > 100 µM
TGI (M14 melanoma): > 100 µM
TGI (SK-MEL-28 melanoma): > 100 µM
TGI (MALME-3M melanoma): > 100 µM
TGI (UO-31 renal): > 100 µM
TGI (HCT-116 colon): > 100 µM
TGI (NCI-H226 lung): > 100 µM
TGI (SF-268 CNS): > 100 µM
TGI (SK-OV-3 ovarian): > 100 µM
TGI (LOX IMVI melanoma): > 100 µM
TGI (U251 CNS): > 100 µM
TGI (TK-10 renal): > 100 µM
TGI (CAKI-1 renal): > 100 µM
TGI (SR leukemia): > 100 µM
TGI (HL-60(TB) leukemia): > 100 µM
TGI (SNB-19 CNS): > 100 µM
TGI (HCT-15 colon): > 100 µM
TGI (SW-620 colon): > 100 µM
TGI (RXF 393 renal): > 100 µM
TGI (KM12 colon): > 100 µM
TGI (HOP-92 NSCLC): > 100 µM
TGI (UACC-62 melanoma): > 100 µM
TGI (SN12C renal): > 100 µM
TGI (NCI-H23 lung): > 100 µM
TGI (A549 NSCLC): > 100 µM
TGI (DMS 114 small cell lung): > 100 µM
TGI (OVCAR-3 ovarian): > 100 µM
TGI (MOLT-4 leukemia): > 100 µM
TGI (IGROV1 ovarian): > 100 µM

N#CC(NNC(=O)c1ccccc1O)c1ccccc1O (stereo not given)
TGI (OVCAR-5 ovarian): > 100 µM
TGI (DLD-1 colon): > 100 µM
TGI (K-562 leukemia): > 100 µM
TGI (786-0 renal): > 100 µM
TGI (SNB-78 CNS): > 100 µM
TGI (SK-MEL-2 melanoma): > 100 µM
TGI (ACHN renal): > 100 µM
TGI (OVCAR-4 ovarian): > 100 µM
TGI (SNB-75 CNS): > 100 µM
TGI (NCI-H522 lung): > 100 µM
TGI (KM20L2 colon): > 100 µM
TGI (M19-MEL melanoma): 27.2 µM
TGI (M14 melanoma): 29.7 µM
TGI (HT29 colon): > 100 µM
TGI (SF-539 CNS): 40.9 µM
TGI (LXFL 529 NSCLC): > 100 µM
TGI (SK-MEL-28 melanoma): > 100 µM
TGI (MALME-3M melanoma): 96.1 µM
TGI (UO-31 renal): 48.4 µM
TGI (HOP-18 NSCLC): > 100 µM
TGI (NCI-H460 lung): > 100 µM
TGI (RPMI-8226 leukemia): > 100 µM
TGI (HCT-116 colon): > 100 µM
TGI (NCI-H226 lung): 25.1 µM
TGI (SF-268 CNS): > 100 µM
TGI (SK-OV-3 ovarian): > 100 µM
TGI (LOX IMVI melanoma): 97.3 µM
TGI (U251 CNS): > 100 µM
TGI (TK-10 renal): > 100 µM
TGI (CAKI-1 renal): 28.4 µM
TGI (SR leukemia): > 100 µM
TGI (HL-60(TB) leukemia): > 100 µM
TGI (HCT-15 colon): > 100 µM
TGI (SW-620 colon): > 100 µM
TGI (COLO 205 colon): > 100 µM
TGI (CCRF-CEM leukemia): > 100 µM
TGI (RXF 393 renal): > 100 µM
TGI (KM12 colon): > 100 µM
TGI (OVCAR-8 ovarian): > 100 µM
TGI (SK-MEL-5 melanoma): 42.3 µM
TGI (HOP-92 NSCLC): > 100 µM
TGI (UACC-62 melanoma): 16.9 µM
TGI (SN12C renal): > 100 µM
TGI (NCI-H23 lung): > 100 µM
TGI (HOP-62 NSCLC): > 100 µM
TGI (UACC-257 melanoma): 83 µM
TGI (A549 NSCLC): > 100 µM
TGI (SF-295 CNS): > 100 µM
TGI (OVCAR-3 ovarian): > 100 µM
TGI (MOLT-4 leukemia): > 100 µM
TGI (IGROV1 ovarian): > 100 µM
TGI (DMS 273 small cell lung): > 100 µM

CCCCc1c2c([n+]([O-])c3c1CCCC3)CCCC2
TGI (HCC-2998 colon): > 100 µM
TGI (K-562 leukemia): > 100 µM
TGI (786-0 renal): > 100 µM
TGI (ACHN renal): 43.1 µM
TGI (EKVX NSCLC): > 100 µM
TGI (NCI-H522 lung): 5.33 µM
TGI (KM20L2 colon): > 100 µM
TGI (M19-MEL melanoma): > 100 µM
TGI (HT29 colon): > 100 µM
TGI (SF-539 CNS): > 100 µM
TGI (LXFL 529 NSCLC): > 100 µM
TGI (SK-MEL-28 melanoma): > 100 µM
TGI (MALME-3M melanoma): > 100 µM
TGI (UO-31 renal): > 100 µM
TGI (NCI-H460 lung): > 100 µM
TGI (RPMI-8226 leukemia): > 100 µM
TGI (HCT-116 colon): > 100 µM
TGI (NCI-H226 lung): > 100 µM
TGI (SF-268 CNS): > 100 µM
TGI (SK-OV-3 ovarian): > 100 µM
TGI (LOX IMVI melanoma): > 100 µM
TGI (U251 CNS): > 100 µM
TGI (XF 498 CNS): > 100 µM
TGI (TK-10 renal): > 100 µM
TGI (SR leukemia): > 100 µM
TGI (HL-60(TB) leukemia): > 100 µM
TGI (SNB-19 CNS): > 100 µM
TGI (HCT-15 colon): > 100 µM
TGI (SW-620 colon): > 100 µM
TGI (COLO 205 colon): > 100 µM
TGI (CCRF-CEM leukemia): > 100 µM
TGI (KM12 colon): > 100 µM
TGI (OVCAR-8 ovarian): > 100 µM
TGI (SK-MEL-5 melanoma): > 100 µM
TGI (SN12C renal): > 100 µM
TGI (NCI-H23 lung): > 100 µM
TGI (HOP-62 NSCLC): > 100 µM
TGI (UACC-257 melanoma): > 100 µM
TGI (A549 NSCLC): > 100 µM
TGI (SF-295 CNS): > 100 µM
TGI (DMS 114 small cell lung): > 100 µM
TGI (OVCAR-3 ovarian): > 100 µM
TGI (MOLT-4 leukemia): > 100 µM
TGI (IGROV1 ovarian): > 100 µM
TGI (DMS 273 small cell lung): > 100 µM

O=C1N(c2ccccc2)C2(O)C(=O)c3ccccc3C2(O)N1c1ccccc1 (stereo not given)
TGI (HCC-2998 colon): > 100 µM
TGI (OVCAR-5 ovarian): > 100 µM
TGI (DLD-1 colon): > 100 µM
TGI (K-562 leukemia): > 100 µM
TGI (786-0 renal): > 100 µM
TGI (SNB-78 CNS): > 100 µM
TGI (SK-MEL-2 melanoma): > 100 µM
TGI (ACHN renal): > 100 µM
TGI (OVCAR-4 ovarian): > 100 µM
TGI (EKVX NSCLC): > 100 µM
TGI (SNB-75 CNS): > 100 µM
TGI (NCI-H522 lung): > 100 µM
TGI (KM20L2 colon): > 100 µM
TGI (M19-MEL melanoma): > 100 µM
TGI (M14 melanoma): > 100 µM
TGI (HT29 colon): > 100 µM
TGI (SF-539 CNS): > 100 µM
TGI (LXFL 529 NSCLC): > 100 µM
TGI (SK-MEL-28 melanoma): > 100 µM
TGI (MALME-3M melanoma): > 100 µM
TGI (UO-31 renal): > 100 µM
TGI (HOP-18 NSCLC): > 100 µM
TGI (NCI-H460 lung): > 100 µM
TGI (RPMI-8226 leukemia): > 100 µM
TGI (HCT-116 colon): > 100 µM
TGI (NCI-H226 lung): > 100 µM
TGI (SF-268 CNS): > 100 µM
TGI (SK-OV-3 ovarian): > 100 µM
TGI (LOX IMVI melanoma): > 100 µM
TGI (U251 CNS): > 100 µM
TGI (TK-10 renal): > 100 µM
TGI (CAKI-1 renal): > 100 µM
TGI (SR leukemia): > 100 µM
TGI (SNB-19 CNS): > 100 µM
TGI (HCT-15 colon): > 100 µM
TGI (SW-620 colon): > 100 µM
TGI (COLO 205 colon): > 100 µM
TGI (CCRF-CEM leukemia): > 100 µM
TGI (RXF 393 renal): > 100 µM
TGI (KM12 colon): > 100 µM
TGI (OVCAR-8 ovarian): > 100 µM
TGI (SK-MEL-5 melanoma): > 100 µM
TGI (UACC-62 melanoma): > 100 µM
TGI (SN12C renal): > 100 µM
TGI (NCI-H23 lung): > 100 µM
TGI (HOP-62 NSCLC): > 100 µM
TGI (UACC-257 melanoma): > 100 µM
TGI (A549 NSCLC): > 100 µM
TGI (SF-295 CNS): > 100 µM
TGI (DMS 114 small cell lung): > 100 µM
TGI (OVCAR-3 ovarian): > 100 µM
TGI (MOLT-4 leukemia): > 100 µM
TGI (IGROV1 ovarian): > 100 µM
TGI (A498 renal): > 100 µM
TGI (DMS 273 small cell lung): > 100 µM
